According to patent publication US20210290648A1, “Potentiation of B-Lactam Antibiotics and B-Lactam/B-Lactamase Inhibitor Combinations Against Multidrug and Extensively Drug-Resistant Pseudomonas Aeruginosa Using Non-Ribosomal Tobramycin-Cyclam Conjugates” (University of Manitoba, priority 2018, published 2021):

Assays:
[1] = system: E. coli ATCC 25922; assay: MIC, microbroth dilution; assay type: cell-based; conditions: standalone
Method: (§1) Antimicrobial Susceptibility Assay. The in vitro antimicrobial activity of all compounds/antibiotics against a panel of bacteria was evaluated by microbroth dilution method in accordance with the Clinical and Laboratory Standards Institute (CLSI) guidelines. Overnight grown bacterial cultures were diluted in saline to achieve a 0.5 McFarland turbidity, followed by 1:50 dilution in Mueller-Hinton broth (MHB) for inoculation to a final concentration of approximately 5×10^5CFU/mL. The antimicrobial agents were 2-fold serially diluted in MHB in a 96-well plate and incubated at 37° C. with equal volumes of inoculum for 18 h. The lowest concentration that prevented the visible growth of bacteria was defined as the MIC for each antimicrobial agent. The broth with or without bacterial cells was used as positive or negative control, respectively.

[2] = system: MRSE CAN-ICU 61589 (CAZ >32); assay: MIC, microbroth dilution; assay type: cell-based; conditions: standalone
Method: as §1

[3] = system: MSSE CANWARD-2008 81388; assay: MIC, microbroth dilution; assay type: cell-based; conditions: standalone
Method: as §1

[4] = system: K. pneumoniae ATCC 13883; assay: MIC, microbroth dilution; assay type: cell-based, Klebsiella pneumoniae; conditions: standalone
Method: as §1

[5] = system: human liver carcinoma (HepG2) cells; assay: Cytotoxicity, PrestoBlue cell viability assay; assay type: cell-based; conditions: highest concentration 50 μM, 48 h
Method: Cytotoxicity Assay. Human embryonic kidney cells (HEK293) and HepG2 cells were grown in Dulbecco's modified eagle's medium supplemented with 10% fetal bovine serum in a humidified […] incubator at 37° C. Equal number of cells (100 μl of media containing ˜8000 cells) were dispersed into 96-well plates and wells with medium but no cells were used as blanks. After incubating for 24 h, […] varying concentrations of test compounds (at twice the desired concentrations) were added to each well, including the blanks. The treated cells were then incubated further for 48 h, after which PrestoBlue reagent was added to each well. The plates were then incubated for an additional hour on a nutator mixer in a 5% CO2 incubator. The fluorescence was read at […] on a SpectraMax M2 plate reader (Molecular Devices, USA). Cell viability were interpreted as previously described (55, 77). The values of blank were subtracted from each value, and the viability values of the treated samples relative to the controls with vehicle were calculated. The values for the plots are the means±standard deviation.

[6] = system: A. baumannii CAN-ICU 63169; assay: MIC, microbroth dilution; assay type: cell-based; conditions: standalone
Method: as §1

[7] = system: E. coli CAN-ICU 61714 (GEN-R); assay: MIC, microbroth dilution; assay type: cell-based; conditions: standalone
Method: as §1

[8] = system: E. coli CAN-ICU 63074 (AMK 32); assay: MIC, microbroth dilution; assay type: cell-based; conditions: standalone
Method: as §1

[9] = system: E. coli CANWARD-2011 97615 (GEN-R, TOB-R, CIP-R) aac(3′)iia; assay: MIC, microbroth dilution; assay type: cell-based; conditions: standalone; E. coli CANWARD-2011 97615 (GEN-R, TOB-R, CIP-R)
Method: as §1

[10] = system: E. faecalis ATCC 29212; assay: MIC, microbroth dilution; assay type: cell-based; conditions: standalone
Method: as §1

[11] = system: E. faecium ATCC 27270; assay: MIC, microbroth dilution; assay type: cell-based; conditions: standalone
Method: as §1

[12] = system: MRSA ATCC 33592; assay: MIC, microbroth dilution; assay type: cell-based; conditions: standalone
Method: as §1

[13] = system: S. aureus ATCC 29213; assay: MIC, microbroth dilution; assay type: cell-based; conditions: standalone
Method: as §1

[14] = system: S. maltophilia CAN-ICU 62584; assay: MIC, microbroth dilution; assay type: cell-based; conditions: standalone
Method: as §1

[15] = system: S. pneumoniae ATCC 49619; assay: MIC, microbroth dilution; assay type: cell-based; conditions: standalone
Method: as §1

[16] = system: P. aeruginosa ATCC 27853; assay: MIC, microbroth dilution; assay type: cell-based, Pseudomonas aeruginosa; conditions: standalone
Method: as §1

[17] = system: P. aeruginosa CAN-ICU 62308 (GEN-R); assay: MIC, microbroth dilution; assay type: cell-based, Pseudomonas aeruginosa; conditions: standalone
Method: as §1

[18] = system: P. aeruginosa CANWARD-2011 96846 (GEN-R, TOB-R); assay: MIC, microbroth dilution; assay type: cell-based, Pseudomonas aeruginosa; conditions: standalone
Method: as §1

Compound | MIC [1] [µg/mL] | MIC [2] [µg/mL] | MIC [3] [µg/mL] | MIC [4] [µg/mL] | cell viability [5] | MIC [6] [µg/mL] | MIC [7] [µg/mL] | MIC [8] [µg/mL] | MIC [9] [µg/mL] | MIC [10] [µg/mL] | MIC [11] [µg/mL] | MIC [12] [µg/mL] | MIC [13] [µg/mL] | MIC [14] [µg/mL] | MIC [15] [µg/mL] | MIC [16] [µg/mL] | MIC [17] [µg/mL] | MIC [18] [µg/mL]
5-O-(Dodecylcyclam)-tobramycin.9HCl [Compound 3] | 64 | 32 | 16 | 64 | about 60% | – | – | – | – | – | – | – | – | – | – | – | – | –
NCC1OC(OC2C(N)CC(N)C(OC3OC(CO)C(O)C(N)C3O)C2OCCCCN2CCCNCCNCCCNCC2)C(N)CC1O.O=C(O)C(F)(F)F.O=C(O)C(F)(F)F.O=C(O)C(F)(F)F.O=C(O)C(F)(F)F.O=C(O)C(F)(F)F.O=C(O)C(F)(F)F.O=C(O)C(F)(F)F.O=C(O)C(F)(F)F.O=C(O)C(F)(F)F (stereo not shown) [Compound 1, 5-O-(Butylcyclam)-tobramycin.9TFA] | 64 | 64 | 16 | 32 | – | >128 | 128 | >128 | >128 | >128 | >128 | 64 | 64 | >128 | >128 | >128 | >128 | >128
